The values below come from US7452908B2, “Amide derivatives” (Banyu Pharmaceutical Co., Ltd., priority 1999, dated 2008).

For test [1], the target named is T1, human m5 muscarinic acetylcholine receptor expressed in CHO cells (Homo sapiens, UniProt P08912).
T1 construct: purchased Receptor Biology, Inc; host or cells: CHO cells
T1 sequence (P08912 1-532): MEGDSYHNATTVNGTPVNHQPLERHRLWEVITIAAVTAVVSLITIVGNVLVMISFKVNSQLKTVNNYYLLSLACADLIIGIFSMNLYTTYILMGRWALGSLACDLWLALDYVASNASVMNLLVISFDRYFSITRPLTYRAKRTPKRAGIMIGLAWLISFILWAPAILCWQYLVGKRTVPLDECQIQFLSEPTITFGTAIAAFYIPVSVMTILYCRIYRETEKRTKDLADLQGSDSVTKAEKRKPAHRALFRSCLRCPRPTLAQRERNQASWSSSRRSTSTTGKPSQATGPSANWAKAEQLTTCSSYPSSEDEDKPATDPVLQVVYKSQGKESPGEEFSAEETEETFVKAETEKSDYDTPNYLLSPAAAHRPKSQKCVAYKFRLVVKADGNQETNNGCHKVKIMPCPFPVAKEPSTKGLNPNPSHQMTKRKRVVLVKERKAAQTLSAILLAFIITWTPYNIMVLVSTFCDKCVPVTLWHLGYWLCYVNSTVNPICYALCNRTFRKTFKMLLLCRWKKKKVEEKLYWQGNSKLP
In words: Inhibition of [3H]-N-methylscopolamine binding to muscarinic m5 receptor. The conditions noted are these: 0.2 nM [3H]-N-methylscopolamine. The procedure: These tests were performed according to a modification of the method of Hargreaves, et al. (Br. J. Pharmacol. 107: 494-501, 1992). Namely, muscarinic acetylcholine receptors of human m1, m2, m3, m4 and m5 expressed in CHO cells (Receptor Biology, Inc.) were incubated with 0.2 nM [^3H]-N-methylscopolamine (82Ci/mmol, New England Nuclear, Inc.) and a test compound to be tested in 0.5 ml of 50 mM Tris-HCl, 10 mM MgCl2, 1 mM EDTA solution (pH 7.4) for 120 minutes at room temperature (about 20-25° C.), followed by suction filtration over a glass filter (UniFilter plate-GF/C; Packard). Then the filter was washed four times with 1 ml of ice-cold Tris-HCl buffer and dried at 50° C. for an hour. After adding a scintillator (Microscinti 0; Packard), the radioactivity of [^3H]-N-methylscopolamine binding to the filter was counted with a microplate scintillation counter (TopCount™; Packard). Non-specific receptor binding of [^3H]-N-methylscopolamine was measured by adding 1 μM N-methylscopolamine.

In test [2] the target is T2, M2 receptor in isolated rat right atrium (Rattus norvegicus, UniProt P10980).
T2 construct: from tissue; host or cells: right atrium of male SD rats
T2 sequence (P10980 1-466): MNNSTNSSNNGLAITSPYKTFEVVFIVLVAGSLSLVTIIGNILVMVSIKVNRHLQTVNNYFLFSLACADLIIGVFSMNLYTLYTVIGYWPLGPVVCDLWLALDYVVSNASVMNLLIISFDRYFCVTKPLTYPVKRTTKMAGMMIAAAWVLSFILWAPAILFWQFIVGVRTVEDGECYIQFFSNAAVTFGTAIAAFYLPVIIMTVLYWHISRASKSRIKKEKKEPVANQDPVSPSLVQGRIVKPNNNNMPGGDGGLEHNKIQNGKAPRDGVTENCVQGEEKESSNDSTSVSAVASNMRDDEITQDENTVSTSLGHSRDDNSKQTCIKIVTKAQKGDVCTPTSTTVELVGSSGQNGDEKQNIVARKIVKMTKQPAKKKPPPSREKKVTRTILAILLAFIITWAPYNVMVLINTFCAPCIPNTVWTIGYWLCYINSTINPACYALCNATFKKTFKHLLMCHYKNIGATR
The experiment in a line: Antagonism to M2 receptor in isolated rat right atrium (carbachol-induced decrease in heart rate). The conditions noted are these: shift of carbachol dose-response curve. The format is cell-based. The procedure: The test was performed according to a conventional method. Male SD strain rats (weighing 300-500 g) were killed by exsanguination, and from each of them the right atrium was isolated. Each preparation was isometrically suspended in a Magnus tube filled with 20 ml of Krebs-Henseleit solution (gassed with 95% O2-5% CO2 and kept at 32° C.) with an initial tension of 0.5 g. The heart rate was recorded with a heart rate counter. After the preparation was equilibrated for 30 minutes, carbachol (10^−9 to 10^−6 M) was cumulatively administered from a low concentration to three-fold increasing doses and accompanying decrease in heart rate was measured to obtain a dose-responsecurve for the control experiment. Afterthe preparation was washed with fresh solution to restore the heart rate, a test compound was administered thereto. Ten minutes later, carbachol was cumulatively administered again. Responses to carbachol were expressed as percentages based on the heart rate before administration of carbachol as 100%. The antagonistic potency (KB value) of the test compound was determined from the degree of shift of the dose-responsecurve attributable to the treatment with individual test compound of the present invention. The results were as shown in Tables 2-1 and 2-2. • 2) Test for Antagonism to the Airway M3 Receptor in Isolated Rat Trachea

Test [3] has as its target T3, muscarinic M3 receptor (Rattus norvegicus, UniProt P08483).
T3 construct: from tissue; host or cells: whole animal, male SD rats (in vivo)
The experiment in a line: Antagonism to muscarinic M3 receptor in vivo: acetylcholine-induced airway resistance-increasing reaction in rats. Conditions: rat, iv, rats, acetylcholine (50 μg/kg) 5 minutes after test compound; read-out: ED50 Airway constriction M3. The protocol:
(§1) Male SD strain rats (weighing 300-500 g) were anesthetized with urethane (1 g/kg) and α-chloralose (50 mg/kg) administered intraperitoneally. The airway and carotid artery of each rat were isolated by laryngotomy and cannulated. The carotid artery cannula was used as the test compound administration route. After suppressing spontaneous respiration by hypodermic administration of succinylcholine (5 mg/body), the rats were transferred into Plethysmograph-box (PLYAN, Buxco) and artificially ventilated under the conditions of ventilation rate of 6 ml/kg per breath and respiration rate of 90 breaths/min., using a pulmotor for small animals (Model 681, Harvard Co.). Measurements of air rate and […], calculation of airway resistance and lung compliance and their recording were conducted with lung function analyzer (Model 6, Buxco). After about 10 minutes' stabilization period, the change in airway resistance induced by intravenous administration of acetylcholine (50 μg/kg) was measured twice at 5 minutes' interval. The change in airway resistance induced by the second acetylcholine administration was recorded as the pre-administration of the tested rat (pre-value). Five (5) minutes afterthe second acetylcholine-induced reaction measurement, the test compound or isotonic sodium chloride solution was intravenously administered. Five (5) minutes thereafter, acetylcholine was administered and whereby induced airway resistance change was measured. In this experiment, one-dosage evaluation was conducted per one animal of the tested rats. The changes in acetylcholine-induced airway resistance-increasing reaction (% of pre-value) caused by the tested compound and isotonic sodium chloride solution were calculated by the following Equation 1: […]
(§2) The inhibitory effect (inhibition ratio) of each test compound on the acetylcholine-induced airway resistance-increasing reaction was determined according to the following Equation 2.
(§3) Fifty (50)% inhibition dose (ED50; μg/kg) was calculated from the inhibition ratio of each dose of the tested compound.

The subject of test [4] is muscarinic M3 receptor. Described as above. Also noted: species or system rat. The conditions noted are these: for Selectivity M1/M3 (in vivo): ratio of ED50 M1 to ED50 M3, rats i.v.; for Selectivity M2/M3 (in vivo): ratio of ED50 M2 to ED50 M3, rats i.v. The procedure:
as §1, §2, §3

A word on the Ki: it is the dissociation constant of the complex between target and ligand, obtained from inhibition or displacement. A lower Ki goes with a stronger hold on the target. One may read the Kb as the equilibrium dissociation constant of an antagonist, usually derived from a functional assay. The term ED50 denotes the dose that gives a 50% effect, or the effect in half of the subjects.

T3 sequence (P08483 whole entry): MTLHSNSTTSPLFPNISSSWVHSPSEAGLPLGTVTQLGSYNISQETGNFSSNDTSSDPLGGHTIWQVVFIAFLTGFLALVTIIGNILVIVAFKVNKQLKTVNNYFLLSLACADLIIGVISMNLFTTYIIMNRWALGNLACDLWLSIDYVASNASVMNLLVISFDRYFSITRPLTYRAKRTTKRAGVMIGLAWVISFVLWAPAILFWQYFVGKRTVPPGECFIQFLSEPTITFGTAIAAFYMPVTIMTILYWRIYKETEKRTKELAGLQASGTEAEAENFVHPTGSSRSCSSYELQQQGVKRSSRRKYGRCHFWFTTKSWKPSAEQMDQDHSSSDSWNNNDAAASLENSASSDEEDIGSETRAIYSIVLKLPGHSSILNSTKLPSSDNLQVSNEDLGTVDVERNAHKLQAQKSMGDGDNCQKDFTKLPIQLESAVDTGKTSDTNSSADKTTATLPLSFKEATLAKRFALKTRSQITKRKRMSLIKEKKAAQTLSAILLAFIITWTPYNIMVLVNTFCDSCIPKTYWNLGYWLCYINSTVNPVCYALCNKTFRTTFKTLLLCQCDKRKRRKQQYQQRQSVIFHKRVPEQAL

`O=C(CCNC(=O)CNC(=O)CC(c1ccccc1)(c1ccccc1)c1ccccc1)NC[C@H]1CCCN(CC2CCCCC2)C1` [Example 12, N-{2-(3-{((3R)-1-cyclohexylmethyl-3-piperidyl)methyl}amino-3-oxopropyl)amino-2-oxoethyl}-3,3,3-triphenyloropanamide] had a Ki in test [1] of 32 nM. In addition, in test [2], the Kb was 160 nM. The ED50 at muscarinic M3 receptor [3] amounted to 15 µg/kg. Besides, in the test with muscarinic M3 receptor [4], the “Selectivity M1/M3 (in vivo)” value is on record as more than 200 times and the “Selectivity M2/M3 (in vivo)” value is reported as 100 times.

In test [1], `CC[N+]1(CC)CCC[C@H](CNC(=O)[C@H]2CCCN2C(=O)[C@@H]2C[C@@H](O)CN2C(=O)CC(c2ccccc2)(c2ccccc2)c2ccccc2)C1.[Cl-]` [Example 133, (3R)-1,1-diethyl-3-({({(2R)-1-({(2S,4R)-4-hydroxy-1-(3,3,3-triphenylpropanoyl)-2-pyrrolidinyl}carbonyl)-2-pyrrolidinyl}carbonyl)amino}methyl)piperidinium chloride] had a Ki of 1600 nM. Further, in test [2], the Kb turned out to be 41 nM. The 50% effective dose (ED50) at muscarinic M3 receptor [3] amounted to 2.1 µg/kg. In the test on muscarinic M3 receptor [4], the “Selectivity M1/M3 (in vivo)” value was more than 143 times and the “Selectivity M2/M3 (in vivo)” value amounted to 54 times.
